In ChEMBL document CHEMBL4422681, “Comprehensive kinetic and substrate specificity analysis of an arylsulfatase from Helix pomatia using mass spectrometry” (Bioorg Med Chem, 2019):
Structures can show the parent of a compound that is named as a salt.

Assays:
[1] = Stability of the compound in pH 7 ammonium acetate buffer by UPLC-MS/MS analysis; assay type: physicochemical
arylsulfatase [2] = experiment: Substrate activity at Helix pomatia arylsulfatase assessed as enzyme-mediated compound hydrolysis using 1 U of enzyme measured after 30 mins by UPLC-MS/MS analysis; assay type: ADME; details: Helix pomatia arylsulfatase (isolated enzyme), read-out: Drug metabolism
arylsulfatase [3] = experiment: Substrate activity at Helix pomatia arylsulfatase assessed as enzyme-mediated compound hydrolysis by measuring Km by UPLC-MS/MS analysis; assay type: ADME; details: Helix pomatia arylsulfatase (isolated enzyme)
[4] = Substrate activity at Helix pomatia arylsulfatase assessed as enzyme-mediated compound hydrolysis by measuring catalytic efficiency by UPLC-MS/MS analysis; assay type: ADME
arylsulfatase [5] = experiment: Substrate activity at Helix pomatia arylsulfatase assessed as enzyme-mediated compound hydrolysis using 1 U of enzyme measured after 24 hrs by UPLC-MS/MS analysis; assay type: ADME; details: Helix pomatia arylsulfatase (isolated enzyme), read-out: Drug metabolism
[6] = Substrate activity at Helix pomatia arylsulfatase assessed as enzyme-mediated compound hydrolysis by measuring Vmax by UPLC-MS/MS analysis; assay type: ADME
[7] = Drug metabolism in pH 7 ammonium acetate buffer assessed as 7-hydroxy-4-methyl-2H-chromen-2-one formation
arylsulfatase [8] = experiment: Substrate activity at Helix pomatia arylsulfatase assessed as enzyme-mediated compound hydrolysis using 5 U of enzyme measured after 30 mins by UPLC-MS/MS analysis; assay type: ADME; details: Helix pomatia arylsulfatase (isolated enzyme), read-out: Drug metabolism
arylsulfatase [9] = experiment: Substrate activity at Helix pomatia arylsulfatase assessed as enzyme-mediated compound hydrolysis by measuring parent compound remaining using 0.1 U of enzyme measured after 30 mins by UPLC-MS/MS analysis; assay type: ADME; details: Helix pomatia arylsulfatase (isolated enzyme), read-out: Stability

Row | SMILES | Stability [1] | metabolised at 0.5 h (arylsulfatase [2]) [%] | Km (arylsulfatase [3]) [µM] | Activity [4] [s⁻¹ µM⁻¹] | metabolised at 24 h (arylsulfatase [5]) [%] | Vmax [6] [µM/s] | metabolised at 0.5 h (arylsulfatase [8]) [%] | remaining at 0.5 h (arylsulfatase [9]) [%] | Drug metabolism [7]
1 | O=S(=O)(O)Oc1cccc(O)c1 | Stable |  | 131 | 696 | 100 | 0.01 |  |  | 
2 | Cc1c[nH]c2ccc(OS(=O)(=O)O)cc12 | Stable |  |  |  | 100 |  |  |  | 
3 | O=C(O)/C=C/c1ccc(OS(=O)(=O)O)cc1 | Stable |  | 262 | 898 | 100 | 0.02 |  |  | 
4 | O=S(=O)(O)Oc1c[nH]c2ccccc12 [INDOXYL SULFATE] | Stable |  | 216 | 1060 | 100 | 0.02 |  |  | 
5 | CCc1ccc(OS(=O)(=O)O)cc1 | Stable |  | 1020 | 7010 | 100 | 0.66 |  |  | 
6 | CC(=O)NCCc1ccc(OS(=O)(=O)O)cc1 | Stable |  | 1490 | 1210 | 100 | 0.17 |  |  | 
7 | COc1cc(C(=O)O)ccc1OS(=O)(=O)O | Stable |  | 341 | 351 | 100 | 0.01 |  |  | 
8 | C[C@]12CC[C@@H]3c4ccc(OS(=O)(=O)O)cc4CC[C@H]3[C@@H]1CCC2=O [ESTRONE SULFURIC ACID] | Stable | 100 | 351 |  |  | 3.8 |  |  | 
9 | COc1ccc2c(c1)c(=O)oc1cc(OS(=O)(=O)O)ccc12 | Stable | 100 | 112 |  |  | 8.21 |  |  | 
10 | O=[N+]([O-])c1ccc(OS(=O)(=O)O)cc1 | Stable | 100 |  |  |  |  |  |  | 

Now from value to compound, other results behind:

Row | Stability [1] | metabolised at 0.5 h (arylsulfatase [2]) [%] | Km (arylsulfatase [3]) [µM] | Activity [4] [s⁻¹ µM⁻¹] | metabolised at 24 h (arylsulfatase [5]) [%] | Vmax [6] [µM/s] | metabolised at 0.5 h (arylsulfatase [8]) [%] | remaining at 0.5 h (arylsulfatase [9]) [%] | SMILES | Drug metabolism [7]
11 | Stable | 100 |  |  |  |  |  |  | C=Cc1ccc(OS(=O)(=O)O)c(OC)c1 | 
12 | Stable |  | 161 | 862 | 100 | 0.01 |  |  | COc1cc(/C=C/C(=O)O)ccc1OS(=O)(=O)O | 
13 | Stable |  | 1400 | 623 | 100 | 0.08 |  |  | Cc1ccc(OS(=O)(=O)O)cc1 | 
14 | Stable | 100 | 175 |  |  | 2.66 | 100 | 3 | Cc1cc(=O)oc2cc(OS(=O)(=O)O)ccc12 | Metabolite detected
